Data taken from patent publication EP4806910A1, “TRI-AGONIST COMPOUND” (priority 2023, dated 2025).

What was measured:
GLP-1R = target: T1, GLP-1R (Homo sapiens, UniProt P43220); assay: GLP-1 activity test (cAMP, chemiluminescence); assay type: cell-based
T1 construct: expressed in transfected cells; host or cells: CHO-K1
Experimental: (§1) Upon stimulation by a specific agonist, GLP-1R activates the intracellular adenylate cyclase signaling pathway, resulting in an increase in cAMP levels and ultimately leading to insulin production and secretion. A cell line stably transfected with GLP-1R was stimulated with test compounds, thereby rapidly increasing intracellular cAMP levels. The relative luminescence units (RLU) of cells stimulated at various concentrations were measured by a chemiluminescence method, and the EC50 value of the agonist was calculated accordingly. This activity test method is currently a commonly used method for evaluating GLP-1 receptor agonist activity both domestically and internationally. A CHO-K1 cell line stably expressing GLP-1R was used. The stable cells were stimulated with agonists at different concentrations, and the relative luminescence units after stimulation at each concentration were measured to calculate the EC50 value of the agonist.

GIPR = target: T2, GIPR (Homo sapiens, UniProt P48546); assay: GIP activity test (cAMP, chemiluminescence); assay type: cell-based
T2 construct: expressed in transfected cells; host or cells: CHO-K1
T2 sequence (P48546 22-466): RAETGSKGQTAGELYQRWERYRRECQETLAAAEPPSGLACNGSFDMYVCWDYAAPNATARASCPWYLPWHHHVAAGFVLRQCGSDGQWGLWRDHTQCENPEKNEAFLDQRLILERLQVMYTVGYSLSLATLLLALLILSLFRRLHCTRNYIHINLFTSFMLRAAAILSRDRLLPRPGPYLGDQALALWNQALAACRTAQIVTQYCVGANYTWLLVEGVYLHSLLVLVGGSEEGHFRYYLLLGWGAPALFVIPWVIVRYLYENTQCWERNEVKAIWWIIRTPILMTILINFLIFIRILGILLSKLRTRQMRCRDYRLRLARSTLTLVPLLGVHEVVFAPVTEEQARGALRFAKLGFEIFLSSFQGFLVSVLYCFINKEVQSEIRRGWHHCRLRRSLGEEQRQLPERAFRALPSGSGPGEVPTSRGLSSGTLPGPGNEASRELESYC
Experimental: as §1, with “agonist, GIPR” for “agonist, GLP-1R”, “with GIPR” for “with GLP-1R”, “activity assay” for “activity test”, “evaluating GIP” for “evaluating GLP-1”, “expressing GIPR” for “expressing GLP-1R”

GCG-R = target: T3, GCG-R (Homo sapiens, UniProt P47871); assay: GCG activity test (cAMP, chemiluminescence); assay type: cell-based
T3 construct: expressed in transfected cells; host or cells: CHO-K1
Experimental: Upon stimulation by a specific agonist, GCG-R activates the intracellular adenylate cyclase signaling pathway, resulting in an increase in cAMP levels and ultimately leading to insulin production and secretion. A cell line stably transfected with GCG-R was stimulated with test compounds, thereby rapidly increasing intracellular cAMP levels. The relative luminescence units (RLU) of cells stimulated at various concentrations were measured by a chemiluminescence method, and the EC50 value of the agonist was calculated accordingly. This activity assay method is currently a commonly used method for evaluating GCG receptor agonist activity both domestically and internationally.
A CHO-K1 cell line stably expressing GCG-R was used. The stable cells were stimulated with agonists at different concentrations, and the relative luminescence units after stimulation at each concentration were measured to calculate the EC50 value of the agonist.

[1] = Preliminary pharmacokinetic evaluation, plasma concentration by LC-MS; assay type: in vivo, cynomolgus monkeys; conditions: for half-life: cynomolgus monkey, male cynomolgus monkeys, subcutaneously (SC), 0.2 mg/kg, plasma; for half-lives: cynomolgus monkeys, administered subcutaneously
Experimental: The test animals were male cynomolgus monkeys. Two animals were used for each compound. The compounds were administered subcutaneously at a dose of 0.2 mg/kg. Blood samples were collected via intravenous sampling prior to administration (0 h) and at 1 h, 2 h, 3 h, 4 h, 8 h, 12 h, 18 h, 24 h, 48 h, 96 h, 144 h, and 168 h after administration. Plasma samples were obtained by centrifugation. The plasma concentrations of the compounds were respectively determined by liquid chromatography - mass spectrometry (LC-MS).

T3 sequence (P47871 26-477, species assumed): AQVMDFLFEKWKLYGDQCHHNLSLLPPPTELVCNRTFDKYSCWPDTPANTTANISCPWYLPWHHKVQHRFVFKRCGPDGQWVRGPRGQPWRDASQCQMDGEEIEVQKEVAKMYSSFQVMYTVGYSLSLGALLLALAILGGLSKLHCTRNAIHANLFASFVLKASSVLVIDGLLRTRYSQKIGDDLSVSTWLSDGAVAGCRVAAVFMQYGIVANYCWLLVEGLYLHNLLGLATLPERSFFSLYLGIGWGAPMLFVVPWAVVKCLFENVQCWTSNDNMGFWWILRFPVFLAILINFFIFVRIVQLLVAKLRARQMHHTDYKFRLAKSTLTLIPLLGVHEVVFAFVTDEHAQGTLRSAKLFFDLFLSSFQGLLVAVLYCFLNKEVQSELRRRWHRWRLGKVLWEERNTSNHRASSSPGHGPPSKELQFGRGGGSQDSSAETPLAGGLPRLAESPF
T1 sequence (P43220 24-463, species assumed): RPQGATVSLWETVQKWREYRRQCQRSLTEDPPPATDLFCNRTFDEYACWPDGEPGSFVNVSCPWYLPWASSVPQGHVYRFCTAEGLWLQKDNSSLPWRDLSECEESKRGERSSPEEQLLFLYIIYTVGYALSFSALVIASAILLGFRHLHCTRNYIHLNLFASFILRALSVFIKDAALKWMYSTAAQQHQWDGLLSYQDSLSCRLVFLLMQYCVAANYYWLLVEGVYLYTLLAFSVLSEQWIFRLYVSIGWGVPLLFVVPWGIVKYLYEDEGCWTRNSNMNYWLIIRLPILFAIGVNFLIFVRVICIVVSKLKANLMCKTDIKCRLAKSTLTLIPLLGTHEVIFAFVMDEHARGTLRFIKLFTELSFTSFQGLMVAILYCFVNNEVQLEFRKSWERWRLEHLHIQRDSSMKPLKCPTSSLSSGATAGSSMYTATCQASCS

Row | Compound | EC50 (GLP-1R) | EC50 (GIPR) | EC50 (GCG-R) | half-life [1] | half-lives [1]
1 | CC[C@H](C)[C@H](NC(=O)[C@H](Cc1ccccc1)NC(=O)[C@H](C)NC(=O)C(C)(C)NC(=O)[C@H](CCC(N)=O)NC(=O)[C@H](C)NC(=O)[C@H](CCCCNC(=O)COCCOCCNC(=O)CCC[C@H](NC(=O)CCCCCCCCCCCCCCCCCCC(=O)O)C(=O)O)NC(=O)[C@H](CCCCN)NC(=O)[C@H](CC(=O)O)NC(=O)[C@H](CC(C)C)NC(=O)C(C)(CC(C)C)NC(=O)[C@@H](NC(=O)[C@H](CO)NC(=O)[C@H](Cc1ccc(O)cc1)NC(=O)[C@H](CC(=O)O)NC(=O)[C@H](CO)NC(=O)[C@@H](NC(=O)C(C)(Cc1ccccc1)NC(=O)[C@@H](NC(=O)CNC(=O)[C@H](CCC(N)=O)NC(=O)C(C)(C)NC(=O)[C@@H](N)Cc1ccc(O)cc1)[C@@H](C)O)[C@@H](C)O)[C@@H](C)CC)C(=O)N[C@@H](CCC(=O)O)C(=O)N[C@@H](Cc1ccc(O)cc1)C(=O)N[C@@H](CC(C)C)C(=O)N[C@@H](CC(C)C)C(=O)N[C@@H](CCC(=O)O)C(=O)NCCCCC(=O)N1CCC[C@H]1C(=O)N[C@@H](CO)C(=O)N[C@@H](CO)C(=O)NCC(=O)N[C@@H](C)C(=O)N1CCC[C@H]1C(=O)N1CCC[C@H]1C(=O)N1CCC[C@H]1C(=O)N[C@@H](CO)C(N)=O (stereo partly shown) [Compound 2] | 0.0406 nM | 0.0181 nM | 0.244 nM | 108 h | greater than 100 hours
2 | CC[C@H](C)[C@H](NC(=O)[C@H](Cc1ccccc1)NC(=O)[C@H](C)NC(=O)C(C)(C)NC(=O)[C@H](CCC(N)=O)NC(=O)[C@H](C)NC(=O)[C@H](CCCCNC(=O)COCCOCCNC(=O)CCC[C@H](NC(=O)CCCCCCCCCCCCCCCCCCC(=O)O)C(=O)O)NC(=O)[C@H](CCCCN)NC(=O)[C@H](CC(=O)O)NC(=O)[C@H](CC(C)C)NC(=O)C(C)(CC(C)C)NC(=O)[C@@H](NC(=O)[C@H](CO)NC(=O)[C@H](Cc1ccc(O)cc1)NC(=O)[C@H](CC(=O)O)NC(=O)[C@H](CO)NC(=O)[C@@H](NC(=O)C(C)(Cc1ccccc1F)NC(=O)[C@@H](NC(=O)CNC(=O)[C@H](CCC(N)=O)NC(=O)C(C)(C)NC(=O)[C@@H](N)Cc1ccc(O)cc1)[C@@H](C)O)[C@@H](C)O)[C@@H](C)CC)C(=O)N[C@@H](CCC(=O)O)C(=O)N[C@@H](Cc1ccc(O)cc1)C(=O)N[C@@H](CC(C)C)C(=O)N[C@@H](CC(C)C)C(=O)N[C@@H](CCC(=O)O)C(=O)NCCCCC(=O)N1CCC[C@H]1C(=O)N[C@@H](CO)C(=O)N[C@@H](CO)C(=O)NCC(=O)N[C@@H](C)C(=O)N1CCC[C@H]1C(=O)N1CCC[C@H]1C(=O)N1CCC[C@H]1C(=O)N[C@@H](CO)C(N)=O (stereo partly shown) [Compound 6] | 0.0375 nM | 0.0188 nM | 0.141 nM | 115 h | greater than 100 hours
